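Results reflect a 48-hour exposure of cells in 96-well plates to compound at five concentrations. Here, GI50 denotes the concentration required for 50% inhibition of growth.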 Calls of active or inactive are those of the source. Cut-off read from the data, not from the text of the source: active = GI50 up to about 1.1 µM and inactive = higher.
Columns and labels:
Experiment in all cases: inhibition of tumour cell growth, NCI panel, 48 h
SN12C = tested on: SN12C
UACC-62 = tested on: UACC-62
A498 = tested on: A498
ACHN = tested on: ACHN
SF-268 = tested on: SF-268
SNB-75 = tested on: SNB-75
NCI-H23 = tested on: NCI-H23
IGROV-1 = tested on: IGROV-1
NCI-H226 = tested on: NCI-H226
SK-MEL-28 = tested on: SK-MEL-28
PC-3 = tested on: PC-3
K562 = tested on: K562
BT-549 = tested on: BT-549
MDA-MB-435 = tested on: MDA-MB-435
CCRF-CEM = tested on: CCRF-CEM
Malme-3M = tested on: Malme-3M
HCC 2998 = tested on: HCC 2998
SW-620 = tested on: SW-620
CAKI-1 = tested on: CAKI-1
HOP-18 = tested on: HOP-18

Row | Compound | GI50 (SN12C) | GI50 (UACC-62) | GI50 (A498) | GI50 (ACHN) | GI50 (SF-268) | GI50 (SNB-75) | GI50 (NCI-H23) | GI50 (IGROV-1) | GI50 (NCI-H226) | GI50 (SK-MEL-28) | GI50 (PC-3) | GI50 (K562) | GI50 (BT-549) | GI50 (MDA-MB-435) | GI50 (CCRF-CEM) | GI50 (Malme-3M) | GI50 (HCC 2998) | GI50 (SW-620) | GI50 (CAKI-1) | GI50 (HOP-18)
1 | Clc1ccc(-c2noc(CN3CCCCC3)n2)cc1 | > 100 µM (inactive) | > 100 µM (inactive) | > 100 µM (inactive) | > 100 µM (inactive) | > 100 µM (inactive) | > 100 µM (inactive) | > 100 µM (inactive) | > 100 µM (inactive) | > 100 µM (inactive) | > 100 µM (inactive) | > 100 µM (inactive) | 55.8 µM (inactive) | > 100 µM (inactive) | > 100 µM (inactive) | 77.1 µM (inactive) | > 100 µM (inactive) | 58.9 µM (inactive) | > 100 µM (inactive) | > 100 µM (inactive) | 
2 | c1ccc(-c2csc3ncn4cnnc4c23)cc1 | 81.7 µM (inactive) | 53.3 µM (inactive) |  | 33.6 µM (inactive) |  | 22.3 µM (inactive) | 90.2 µM (inactive) | 77.8 µM (inactive) | 54.1 µM (inactive) | > 100 µM (inactive) |  | > 100 µM (inactive) |  |  | 85.9 µM (inactive) |  | > 100 µM (inactive) | > 100 µM (inactive) |  | 52 µM (inactive)
3 | CCCCCCCCCC(=O)CC(=O)c1c(O)cccc1O | 24.4 µM (inactive) | 33.4 µM (inactive) |  | 27.4 µM (inactive) | 33.8 µM (inactive) | 28 µM (inactive) | 30.5 µM (inactive) | 32.3 µM (inactive) | 25.9 µM (inactive) | 62.7 µM (inactive) |  | 27.7 µM (inactive) |  |  | 27.4 µM (inactive) | 35.2 µM (inactive) | 44.6 µM (inactive) | 28.8 µM (inactive) | 33.2 µM (inactive) | 25.4 µM (inactive)
4 | C=C1C(=O)OC2/C=C(\COC(C)=O)CCC(OC(C)=O)C3=CC(OC3=O)C12 (stereo not drawn) | 8.87 µM (inactive) | 4.26 µM (inactive) | 16 µM (inactive) | 3.12 µM (inactive) | 22.3 µM (inactive) | 15.9 µM (inactive) | 8.95 µM (inactive) | 23.8 µM (inactive) | 23.9 µM (inactive) | 3.99 µM (inactive) | 16.4 µM (inactive) | 2.3 µM (inactive) | 5.38 µM (inactive) | 10.6 µM (inactive) | 1.01 µM (active) | 2.15 µM (inactive) | 14.4 µM (inactive) | 1.77 µM (inactive) | 3.03 µM (inactive) | 
5 | Cc1ccccc1NC(=O)CC(=O)NNC(Sc1ccccc1)c1cc(/N=N/c2ccc(Br)cc2)ccc1O (stereo not drawn) | 2.49 µM (inactive) | 1 µM (active) | 2.4 µM (inactive) | 1.82 µM (inactive) | 0.733 µM (active) | 3.79 µM (inactive) | 3.08 µM (inactive) | 8.02 µM (inactive) | 2.04 µM (inactive) | 6.52 µM (inactive) | 0.877 µM (active) | 2.73 µM (inactive) | 3.72 µM (inactive) | 3.65 µM (inactive) | 0.43 µM (active) | 3.26 µM (inactive) | 7.36 µM (inactive) | 0.723 µM (active) | 2.53 µM (inactive) | 
6 | CCOC(=O)C(NC(=O)CC)(Nc1ccc(S(=O)(=O)Nc2ccc(OC)nn2)cc1)C(F)(F)F (stereo not drawn) | > 100 µM (inactive) | > 100 µM (inactive) | > 100 µM (inactive) | > 100 µM (inactive) | > 100 µM (inactive) | > 100 µM (inactive) | > 100 µM (inactive) | > 100 µM (inactive) | > 100 µM (inactive) | > 100 µM (inactive) | > 100 µM (inactive) | > 100 µM (inactive) | > 100 µM (inactive) | > 100 µM (inactive) | > 100 µM (inactive) | > 100 µM (inactive) | 27.4 µM (inactive) | > 100 µM (inactive) | > 100 µM (inactive) | 
7 | Cc1cccc(NC(=O)CSc2nnc(-c3ccc(/N=C\c4ccc(Cl)cc4)cc3)o2)c1 | > 100 µM (inactive) | > 100 µM (inactive) |  | > 100 µM (inactive) | > 100 µM (inactive) | > 100 µM (inactive) | > 100 µM (inactive) |  | > 100 µM (inactive) | > 100 µM (inactive) |  | > 100 µM (inactive) |  |  | > 100 µM (inactive) | > 100 µM (inactive) |  | > 100 µM (inactive) |  | > 100 µM (inactive)
8 | COC(=O)c1c(C)cccc1C1CN=NC12Cc1cccc(C)c1C2=O (stereo not drawn) | 27.2 µM (inactive) | 26.9 µM (inactive) | 52 µM (inactive) | 27.4 µM (inactive) | 83.4 µM (inactive) | 38.4 µM (inactive) | 32.2 µM (inactive) | 27.7 µM (inactive) | 20.9 µM (inactive) | 29.6 µM (inactive) | 20.3 µM (inactive) | 25.9 µM (inactive) | 23.6 µM (inactive) | 31.1 µM (inactive) | 19.8 µM (inactive) | 29.1 µM (inactive) | 38 µM (inactive) | 43.2 µM (inactive) | 37.7 µM (inactive) | 
9 | CC(=O)OC(Cc1ccc2ccccc2n1)(C(F)(F)F)C(F)(F)F | 1.27 µM (inactive) | 1.32 µM (inactive) | 1.95 µM (inactive) | 3.78 µM (inactive) | 2.17 µM (inactive) | 4.36 µM (inactive) | 1.58 µM (inactive) | 1.31 µM (inactive) | 1.76 µM (inactive) | 1.42 µM (inactive) | 2.09 µM (inactive) | 0.594 µM (active) | 1.6 µM (inactive) | 1.21 µM (inactive) | 0.0728 µM (active) | 0.849 µM (active) | 0.851 µM (active) | 0.426 µM (active) | 0.802 µM (active) | 
10 | CCOC(=O)C(C)c1cc(C2(C)OCCO2)c(C)o1 (stereo not drawn) | > 100 µM (inactive) | > 100 µM (inactive) |  | > 100 µM (inactive) | > 100 µM (inactive) | 88.9 µM (inactive) | > 100 µM (inactive) | > 100 µM (inactive) |  |  |  | > 100 µM (inactive) |  |  | > 100 µM (inactive) | > 100 µM (inactive) | > 100 µM (inactive) | > 100 µM (inactive) |  | > 100 µM (inactive)
11 | Cc1ccc(-c2n[nH]c(=O)[nH]2)cc1[N+](=O)[O-] | > 100 µM (inactive) | > 100 µM (inactive) | > 100 µM (inactive) | > 100 µM (inactive) | > 100 µM (inactive) | 61 µM (inactive) | > 100 µM (inactive) | > 100 µM (inactive) | > 100 µM (inactive) | > 100 µM (inactive) | > 100 µM (inactive) | > 100 µM (inactive) | 36.8 µM (inactive) | > 100 µM (inactive) | > 100 µM (inactive) | > 100 µM (inactive) | 63.4 µM (inactive) | > 100 µM (inactive) | > 100 µM (inactive) | 
12 | CCCCCC(/C=N/NC(N)=S)C(O)(C(F)(F)F)C(F)(F)F (stereo not drawn) | > 10 µM (inactive) | > 10 µM (inactive) | > 10 µM (inactive) | > 10 µM (inactive) | > 10 µM (inactive) | > 10 µM (inactive) | > 10 µM (inactive) | > 10 µM (inactive) | > 10 µM (inactive) | > 10 µM (inactive) | > 10 µM (inactive) | > 10 µM (inactive) | > 10 µM (inactive) | > 10 µM (inactive) | > 10 µM (inactive) | > 10 µM (inactive) | > 10 µM (inactive) | > 10 µM (inactive) | > 10 µM (inactive) | 
13 | O=c1[nH]c(=O)n(C2CC(O)C(CO)O2)c2nc3ccc4cc5ccccc5cc4c3nc12 (stereo not drawn) | > 100 µM (inactive) | > 100 µM (inactive) | > 100 µM (inactive) | > 100 µM (inactive) | > 100 µM (inactive) | > 100 µM (inactive) | > 100 µM (inactive) | > 100 µM (inactive) | > 100 µM (inactive) | > 100 µM (inactive) | > 100 µM (inactive) | > 100 µM (inactive) | > 100 µM (inactive) | > 100 µM (inactive) | > 100 µM (inactive) | > 100 µM (inactive) | > 100 µM (inactive) | > 100 µM (inactive) | > 100 µM (inactive) | 
14 | COC(=O)C1C(=O)CC(C)(O)C(C(=O)OC)C1c1ccc(N(C)C)cc1 (stereo not drawn) | > 100 µM (inactive) | > 100 µM (inactive) | > 100 µM (inactive) | > 100 µM (inactive) | > 100 µM (inactive) | > 100 µM (inactive) | > 100 µM (inactive) | > 100 µM (inactive) | > 100 µM (inactive) | > 100 µM (inactive) | > 100 µM (inactive) | > 100 µM (inactive) | > 100 µM (inactive) | > 100 µM (inactive) | > 100 µM (inactive) | > 100 µM (inactive) | > 100 µM (inactive) | > 100 µM (inactive) | > 100 µM (inactive) | 
15 | Cc1ccc(CC2(C(=O)O)Cc3ccc(C)cc3C2)cc1 (stereo not drawn) | > 100 µM (inactive) | 56.5 µM (inactive) | > 100 µM (inactive) | 94.4 µM (inactive) | > 100 µM (inactive) | > 100 µM (inactive) | 75.5 µM (inactive) | > 100 µM (inactive) | > 100 µM (inactive) | > 100 µM (inactive) | 51.5 µM (inactive) | 61.7 µM (inactive) | 65.3 µM (inactive) | > 100 µM (inactive) | 49.2 µM (inactive) | > 100 µM (inactive) | > 100 µM (inactive) | > 100 µM (inactive) | > 100 µM (inactive) | 
16 | COc1cc(/C=C(\C#N)C(N)=C(C#N)C#N)cc(O)c1O | > 36 µM (inactive) | > 93.5 µM (inactive) | > 100 µM (inactive) | > 100 µM (inactive) | > 87.9 µM (inactive) | > 88.5 µM (inactive) | > 100 µM (inactive) | > 66.8 µM (inactive) | > 63.5 µM (inactive) | > 100 µM (inactive) | > 100 µM (inactive) | > 79.6 µM (inactive) | > 100 µM (inactive) | 59.3 µM (inactive) | 22.7 µM (inactive) | > 100 µM (inactive) | > 100 µM (inactive) | > 76.4 µM (inactive) | > 100 µM (inactive) | 
